# Measurements reported in patent publication US12122833B2, “Combination therapies of HDAC inhibitors and PD-1 inhibitors” (HUYABIO International, LLC, priority 2016, dated 2024).
# Tests used:
# HDAC 3 = HDAC 3 (Homo sapiens, UniProt O15379); conditions: reported by Ning et al.; cited from earlier work
# [1] = tested on: MC38 murine colon carcinoma cells; assay: Example 2: tumor growth delay, MC38 tumors (5×10^5 cells) in C57BL/6 mice; format: in vivo, mouse; conditions: HBI-8000 50 mg/kg p.o. qd×21, anti-PD-1 5 mg/kg i.p. biwk×3
# Procedure: Animals that exited the study for tumor volume endpoint were documented as euthanized for tumor progression (TP), with the date of euthanasia. The time to endpoint (TTE) for analysis was calculated for each mouse by the following equation:
# [formula] where TTE is expressed in days, endpoint volume is expressed in mm^3, b is the intercept, and m is the slope of the line obtained by linear regression of a log-transformed tumor growth data set. The data set consisted of the first observation that exceeded the endpoint volume used in analysis and the three consecutive observations that immediately preceded the attainment of this endpoint volume. The calculated TTE is usually less than the TP date, the day on which the animal was euthanized for tumor burden. […] In instances in which the log-transformed calculated TTE preceded the day prior to reaching endpoint or exceeded the day of reaching tumor volume endpoint, a linear interpolation was performed to approximate the TTE. […]
# Treatment Outcome: Treatment outcome was evaluated from tumor growth delay (TGD), which is defined as the increase in the median time to endpoint (TTE) in a treatment group compared to the control group: TGD=T−C expressed in days, or as a percentage of the median TTE of the control group: […]
# Treatment Efficacy: Treatment efficacy may be determined from the tumor volumes of animals remaining in the study on the last day. […]
# HDAC 1 = HDAC 1 (Homo sapiens, UniProt Q13547); conditions: reported by Ning et al.; cited from earlier work
# HDAC 1, sequence (Q13547 whole entry): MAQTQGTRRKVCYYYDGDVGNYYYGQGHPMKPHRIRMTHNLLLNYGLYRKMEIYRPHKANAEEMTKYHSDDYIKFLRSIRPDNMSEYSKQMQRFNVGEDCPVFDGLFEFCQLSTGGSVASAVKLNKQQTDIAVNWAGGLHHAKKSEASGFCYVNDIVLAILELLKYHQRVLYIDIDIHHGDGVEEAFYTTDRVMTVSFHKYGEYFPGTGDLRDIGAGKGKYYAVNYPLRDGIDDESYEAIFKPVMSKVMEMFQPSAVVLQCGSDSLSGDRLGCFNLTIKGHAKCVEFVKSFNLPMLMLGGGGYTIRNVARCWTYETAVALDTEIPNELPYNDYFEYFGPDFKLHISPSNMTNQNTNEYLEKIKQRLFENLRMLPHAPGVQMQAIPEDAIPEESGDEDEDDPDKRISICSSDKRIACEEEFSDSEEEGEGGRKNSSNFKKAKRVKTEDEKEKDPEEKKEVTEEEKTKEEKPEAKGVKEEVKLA
# HDAC 3, sequence (O15379 whole entry): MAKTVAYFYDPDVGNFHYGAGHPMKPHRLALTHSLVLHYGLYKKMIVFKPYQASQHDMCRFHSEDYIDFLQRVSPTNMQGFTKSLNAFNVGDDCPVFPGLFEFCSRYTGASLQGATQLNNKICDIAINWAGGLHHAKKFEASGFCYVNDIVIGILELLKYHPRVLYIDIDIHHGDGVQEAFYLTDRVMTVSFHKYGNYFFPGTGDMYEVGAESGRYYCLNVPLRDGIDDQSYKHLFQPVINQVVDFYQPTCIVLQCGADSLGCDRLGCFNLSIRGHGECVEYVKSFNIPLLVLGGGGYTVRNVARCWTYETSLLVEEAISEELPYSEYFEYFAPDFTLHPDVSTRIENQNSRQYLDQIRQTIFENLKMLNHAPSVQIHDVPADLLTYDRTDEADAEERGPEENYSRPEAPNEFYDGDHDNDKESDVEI
# HDAC 3, sequence (Q9Y618 395-489 partner limits assumed): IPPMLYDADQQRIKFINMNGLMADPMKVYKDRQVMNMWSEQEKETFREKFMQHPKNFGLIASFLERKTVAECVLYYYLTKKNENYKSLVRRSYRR
structure (smiles),measurement,setting,value
"Nc1cc(F)ccc1NC(=O)c1ccc(CNC(=O)/C=C/c2cccnc2)cc1 [HBI-8000, N-(2-amino-4-fluorophenyl)-4-[[[(2E)-1-oxo-3-(3-pyridinyl)-2-propen-1-yl]amino]methyl]benz amide]",activity at HDAC 3 compared with Entinostat,HDAC 3,more active than Entinostat
same,inhibition of HDAC 3,HDAC 3,low nanomolar concentrations
same,Median TTE,"[1]; endpoint 1000 mm^3 or Day 50, n=10",19.4 days
same,% TGD,[1]; vs vehicle,19%
same,activity at HDAC 1 compared with Entinostat,HDAC 1,more active than Entinostat
same,inhibition of HDAC 1,HDAC 1,low nanomolar concentrations
